Laboratory results as given in patent publication US20230348917A1, “EXPRESSION VECTOR FOR USE IN METHANOTROPH” (priority 2020, published 2023).

Assays:
[1] = test system: dTomato expression in M. trichosporium OB3b; test: dTomato expression by fluorescence (microplate reader, FACS) in transconjugated M. trichosporium OB3b; format: cell-based, Methylosinus trichosporium OB3b; settings: pAWP89S-Ptet-dTomato plasmid; aTc induction
Description: For analysis of the expression level by fluorescence, 200 μl was sampled in a 96-well plate and a Tecan microplate reader (excitation: 535 nm, emission: 590 nm) was used. FACS analysis was performed using BD Biosciences FACSCalibur equipment (excitation: 488 nm, emission: 585 nm).
M. trichosporium OB3b transconjugated with the pAWP89S-Ptet-dTomato plasmid was treated with anhydrotetracycline (aTc) at 0 μM, 0.5 μM, 1 μM, or 2 μM, respectively, to induce expression, and the expression of the fluorescent protein dTomato was examined for 8 days. The experiment was performed by the method of Experimental Example 3 above.

[2] = test system: M. capsulatus Bath with the pAWP89S-Po-dTomato plasmid; settings: 0.5 mM benzene, 24 hours
Description: It was confirmed whether dTomato could be induced with benzene under sMMO expression conditions (copper-deficient medium).
The M. capsulatus Bath with the pAWP89S-Po-dTomato plasmid were cultured under sMMO expression condition (copper-deficient medium) and pMMO expression condition (copper-containing medium) while supplying 0.5 mM benzene for 24 hours. A strain supplied with 10 μM of phenol was used as a control group.

M. capsulatus Bath [3] = test: Toxicity test of isoprene and epoxy isoprene (growth assay); format: cell-based, Methylococcus capsulatus Bath; settings: various concentrations of isoprene, or 1.35 and 13.5 mg/L epoxyisoprene; for growth of the strain expressing sMMO: absence of copper; for growth of the cells expressing pMMO: presence of copper
Description: To analyze the toxicity of isoprene and epoxyisoprene using wild-type strains, 2 mL cultures were transferred to 150 mL serum bottle containing 19 ml NMS medium with or without 10 μM CuCl2. After incubation for 6.5 to 7.5 hours, an appropriate amount of isoprene or epoxy isoprene (2-methyl-2-vinyloxirane) diluted in dodecane was added. The bottle was sealed, 50% of the headspace was replaced with methane, and the bottle was further incubated. Sampling of 1 mL cultures for cell density measurement was performed at appropriate time intervals using a disposable syringe without reopening the bottle.
To examine the potential toxicity of isoprene produced in M. capsulatus Bath, growth assays were performed in the presence of various concentrations of isoprene while regulating the expression of sMMO and pMMO enzymes by controlling the addition of copper.
In addition, in order to examine whether the growth inhibition of the strain was due to the oxidation of isoprene by sMMO, the strain growth was analyzed in the presence of 1.35 and 13.5 mg/L of epoxyisoprene, an oxidation product of isoprene. As a result, it was confirmed that the growth of both the sMMO-expressing strain and the pMMO-expressing strain were reduced depending on the concentration of the epoxy isoprene treated above ((d) and (e) in FIG. 17).

[4] = test system: dTomato expression in M. capsulatus Bath; test: dTomato expression by fluorescence in transconjugated M. capsulatus Bath; format: cell-based, Methylococcus capsulatus Bath; settings: pAWP89S-Po-dTomato plasmid; 10 μM phenol
Description: (§1) The transconjugated M. capsulatus Bath and M. trichosporium OB3b were inoculated by 10% in NMS medium containing 25 μg/ml kanamycin and 10 μM CuCl2. For the methanotrophs transconjugated with the pAWP89S-Po-dTomato, 10 μM of phenol was contained in the medium. After sealing, 50% methane gas was substituted in the headspace. The recombinant M. capsulatus Bath was cultured at 37° C. for 24 hours or 44 to 48 hours, and therecombinant M. trichosporium OB3b was cultured at 30° C.

M. capsulatus Bath [5] = settings: pAWP89S-Po-dTomato strain; 100 μM phenol compared with 10 μM phenol
Description: as §1

Cc1c2c(c(O)c3c(O)cccc13)C(=O)[C@]1(O)C(=O)C(C(N)=O)=C(O)[C@@H](N(C)C)[C@@H]1C2 [aTc, anhydrotetracycline]
FACS distribution of dTomato fluorescence of individual cells [1]: two peaks were formed
time required for expression to be most active [1]: about 8 days

c1ccccc1 [benzene]
dTomato expression (fluorescence value) ([2]; pMMO expression condition (copper-containing medium)): relatively small fluorescence value
dTomato expression ([2]; sMMO expression condition (copper-deficient medium)): highly induced

C=CC1(C)CO1 (stereo not shown) [epoxyisoprene, 2-methyl-2-vinyloxirane]
growth of the strain expressing sMMO (M. capsulatus Bath [3]): reduced
growth of the cells expressing pMMO (M. capsulatus Bath [3]): reduced

C=CC(=C)C [isoprene]
growth of the strain expressing sMMO (M. capsulatus Bath [3]): reduced
growth of the cells expressing pMMO (M. capsulatus Bath [3]): unaffected

Oc1ccccc1 [phenol]
time after phenol supply at which fluorescence due to dTomato expression was observed [4]: 5 h
strain growth (M. capsulatus Bath [5]): inhibited
